Structures can show the parent of a compound that is named as a salt. Where two headings read alike, the source gives them in different places.
Molecular target: T1, human urotensin II receptor (Homo sapiens, UniProt Q9UKP6)
T1 construct: expressed in transfected cells; host or cells: NIH3T3 cells
T1 sequence (Q9UKP6 1-389): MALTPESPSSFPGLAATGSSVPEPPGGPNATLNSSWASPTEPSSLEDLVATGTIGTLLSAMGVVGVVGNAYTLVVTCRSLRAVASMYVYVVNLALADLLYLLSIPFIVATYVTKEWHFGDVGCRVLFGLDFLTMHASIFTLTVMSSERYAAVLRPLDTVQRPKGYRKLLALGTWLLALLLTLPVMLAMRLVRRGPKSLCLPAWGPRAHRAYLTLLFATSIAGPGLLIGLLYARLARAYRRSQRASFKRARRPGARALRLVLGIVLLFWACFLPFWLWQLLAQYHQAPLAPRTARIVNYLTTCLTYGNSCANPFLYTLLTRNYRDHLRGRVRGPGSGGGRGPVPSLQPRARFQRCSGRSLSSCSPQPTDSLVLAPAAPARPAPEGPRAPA
Experiment: Receptor Selection and Amplification (R-SAT) functional assay, NIH3T3 cells transfected with human urotensin II receptor and β-galactosidase marker
Assay type: cell-based
Details: for pEC50 / EC50: eight doses in triplicate
Protocol: The functional receptor assay, Receptor Selection and Amplification Technology (R-SAT™), was used (with minor modifications from the procedure described previously (Brann, M. R. U.S. Pat. No. 5,707,798, 1998; Chem. Abstr. 1998, 128, 111548) to screen compounds for efficacy at the UII receptor. The RSAT assay was conducted as described herein.
Briefly, NIH3T3 cells were grown in tissue culture treated rollerbottles to 40-80% confluence in Dulbecco's modified Eagle's medium (DMEM) supplemented with 10% bovine calf serum (Hyclone) and 1% penicillin/streptomycin/glutamine (Invitrogen). Cells were transfected for 12-18 hours with the human urotensin II receptor and the β-galactosidase marker. After transfection, the cells were trypsinized, harvested and frozen in DMEM containing 10% DMSO. Frozen cells were later thawed and tested for a response to a control compound to perform quality control before initiation of pharmacological testing, ensuring the correct pharmacological response and sufficient sensitivity. To initiate the pharmacological assay, cells were thawed rapidly and prepared in DMEM media containing 0.4% calf serum (Hyclone), 30% UltraCulture (Biowhittaker), and 1% penicillin/streptomycin/glutamine (Invitrogen), and then plated at 10,000-40,000 cells per well of a 96½ area plate that contained either the test compounds or reference ligands. Cells were then grown in a humidified atmosphere with 5% ambient CO2 for five days. Media was then removed from the plates and marker gene activity was measured by the addition of the beta-galactosidase substrate ONPG (in PBS with 5% NP-40). The resulting colorimetric reaction was measured in a spectrophotometric plate reader (Titertek Inc.) at […].
pEC50 represents the negative logarithm of the concentration of ligand that caused 50% activation of the basal receptor response. Percent activation was calculated as the difference between the absorbance measurements in the absence of added ligand compared with that in the presence of saturating concentrations of ligand normalized to the absorbance difference for the reference ligand, which was assigned a value of 100%.
Results were determined in R-SAT assays and are expressed as pEC50, the negative of the log EC50 in molarity. Results are the average±standard deviation of 2-X determinations of the EC50 where each compound was tested in eight doses in triplicate.

[1] = NIH3T3, Table 3, percent activation normalized to the reference ligand assigned 100%, read-out: Efficacy
[2] = Table 3, negative of the log EC50 in molarity, average ± standard deviation (or range) of determinations
[3] = NIH3T3, Table 4, % efficacy normalized to UII at 100%
[4] = Table 4, negative of the log EC50 in molarity, average ± standard deviation of 2-5 determinations
[5] = Table 3, percent activation normalized to the reference ligand assigned 100%

Molecule | Emax [1] [%] | pEC50 [2] | Emax [3] [%] | EC50 [4] [µM] | further results
CN(C)CCC(NC(=O)c1ccc(N(C)C)cc1)c1ccc(Cl)cc1.O=C(O)C(=O)O (stereo not drawn) [5e, N-[1-(4-Chlorophenyl)-3-dimethylaminopropyl]-4-dimethylamino-benzamide oxalate] | 145 ± 25 | 5.87 ± 0.17 |  |  | 
Cc1ccc(C(CCN(C)C)NC(=O)C=Cc2ccccc2)cc1 (stereo not drawn) [B7, N-[3-Dimethylamino-1-(4-methylphenyl)propyl]cinnamic amide] |  |  | 97 ± 6 | 1.55 | 
COc1ccc(CC(=O)NC(CCN(C)C)c2ccc(C)cc2)cc1 (stereo not drawn) [B3, N-[3-Dimethylamino-1-(4-methylphenyl)propyl]-2-(4-methoxyphenyl)acetamide HCl] |  |  | 62 ± 5 | 5.89 | 
Cc1ccccc1C(=O)NC(CCN(C)C)c1ccc(Cl)cc1.O=C(O)C(=O)O (stereo not drawn) [5b, N-[1-(4-Chlorophenyl)-3-dimethylamino-propyl]-2-methyl-benzamide oxalate] | 175 ± 15 | 5.45 ± 0.04 |  |  | 
COc1ccc(C(=O)NC(CCN(C)C)c2ccc(Cl)cc2)cc1.O=C(O)C(=O)O (stereo not drawn) [5d, N-[1-(4-Chlorophenyl)-3-dimethylaminopropyl]-4-methoxy-benzamide oxalate] | 148 ± 33 | 5.87 ± 0.2 |  |  | 
COc1ccc(CCC(=O)NC(CCN(C)C)c2ccc3ccccc3c2)cc1.Cl (stereo not drawn) [C6] |  |  |  |  | Efficacy (Table 4, % efficacy normalized to UII at 100%): 113 ± 9%; pEC50 [4]: 5.85 ± 0.11
CN(C)CCC(NC(=O)/C=C/c1ccccc1)c1ccc2ccccc2c1 (stereo not drawn) [C7, N-[3-Dimethylamino-1-(2-naphthyl)propyl]-3-cinnamic amide HCl] |  |  | 116 ± 3 | 0.589 | 
(+)-N-[1-Chlorophenyl)-3-dimethylaminopropyl]-(R)-2-methoxy-2-phenyl-acetamide oxalate [(+) 5s] |  | 5.30 ± 0.07 |  |  | Efficacy [5]: 112 ± 22%
CCc1ccccc1C(=O)OC(CCN(C)C)c1ccc(Cl)cc1.Cl (stereo not drawn) [4b, 1-(4-Chlorophenyl)-3-dimethylamino-propyl 2-ethyl-benzoate HCl] | 128 ± 31 | 5.89 ± 0.05 |  |  | 
Cc1ccc(C(CCN(C)C)NC(=O)C#Cc2ccccc2)cc1 (stereo not drawn) [B10, N-[3-Dimethylamino-1-(4-methylphenyl)propyl]-3-phenylpropiolic amide] |  |  | 131 | 3.09 | 
COc1ccc(C=CC(=O)NC(CCN(C)C)c2ccc(C)cc2)cc1 (stereo not drawn) [B9, N-[3-Dimethylamino-1-(4-methylphenyl)propyl]-4-methoxy-cinnamic amide HCl] |  |  | 79 ± 14 | 2 | 
COc1cccc(C(=O)NC(CCN(C)C)c2ccc(Cl)cc2)c1C.O=C(O)C(=O)O (stereo not drawn) [5g, N-[1-(4-Chlorophenyl)-3-dimethylamino-propyl]-3-methoxy-2-methyl-benzamide oxalate] | 179 ± 11 | 5.37 ± 0.14 |  |  | 
COc1ccc(NC(=O)OC(CCN(C)C)c2ccc(Cl)cc2)cc1 (stereo not drawn) [7h, N-[1-(4-Chlorophenyl)-3-dimethylaminopropyloxycarbonyl]-4-methoxyphenyl-amine] | 130 to 223 |  |  |  | EC50 [2]: 0.955 to 2.45 µM
Cc1ccccc1NC(=O)NC(CCN(C)C)c1ccc(Cl)cc1 (stereo not drawn) [8a, 1-[1-(4-Chlorophenyl)-3-dimethylaminopropyl]-3-(2-methylphenyl)-carbamide oxalate] | 166 ± 24 | 5.64 ± 0.15 |  |  | 
CN(C)CCC(NC(=O)c1ccc(-c2ccccc2)cc1)c1ccc(Cl)cc1.O=C(O)C(=O)O (single isomer, unassigned; (+)) [(+) 5o, (+)-N-[1-(4-Chlorophenyl)-3-dimethylamino-propyl]-4-phenyl-benzamide oxalate] |  |  |  |  | EC50 [2]: 0.0123 to 0.0275 µM; Efficacy (Table 3, percent activation normalized to the reference ligand assigned 100%, oxalate): 104-108%

Further lines, with some results ahead:

Emax [1] [%] | pEC50 [2] | Emax [3] [%] | EC50 [4] [µM] | Molecule | further results
 |  | 117 ± 1 | 0.135 | CN(C)CCC(NC(=O)C=Cc1ccc(C(F)(F)F)cc1)c1ccc2ccccc2c1 (stereo not drawn) [C8, N-[3-Dimethylamino-1-(2-naphthyl)propyl]-4-trifluoromethyl-cinnamic amide HCl] | 
 |  | 76 ± 5 | 1.86 | CN(C)CCC(NC(=O)Cc1ccccc1)c1ccc(Cl)cc1 (stereo not drawn) [A1, N-[1-(4-Chlorophenyl)-3-dimethylamino-propyl]-2-phenylacetamide HCl] | 
 |  | 124 ± 6 | 0.398 | CN(C)CCC(NC(=O)C#Cc1ccccc1)c1ccc(Cl)cc1 (stereo not drawn) [A10, N-[1-(4-Chlorophenyl)-3-dimethylamino-propyl]-3-phenylpropiolic amide HCl] | 
180 ± 8 | 5.67 ± 0.11 |  |  | CN(C)CCC(OC(=O)NCc1ccccc1)c1ccc(Cl)cc1 (stereo not drawn) [7e, N-[1-(4-Chlorophenyl)-3-dimethylaminopropyloxycarbonyl]-benzyl-amine] | 
 | 6.44-6.67 |  |  | N-[1-(4-Chlorophenyl)-3-dimethylaminopropyloxycarbonyl]-4-phenyl-amine [7f] | Efficacy [5]: 43-75%
 |  | 40 ± 3 | 0.575 | CN(C)CCC(NC(=O)Cc1ccc(C(F)(F)F)cc1)c1ccc2ccccc2c1 (stereo not drawn) [C2, N-[3-Dimethylamino-1-(2-naphthyl)propyl]-2-(4-trifluoromethylphenyl)acetamide HCl] | 
 |  | 107 ± 22 | 0.603 | CN(C)CCC(NC(=O)CCc1ccccc1)c1ccc2ccccc2c1 (stereo not drawn) [C4, N-[3-Dimethylamino-1-(2-naphthyl)propyl]-3-phenyl-propionamide HCl] | 
142 ± 14 | 5.76 ± 0.13 |  |  | Cc1c(Cl)cccc1C(=O)NC(CCN(C)C)c1ccc(Cl)cc1.O=C(O)C(=O)O (stereo not drawn) [5h, N-[1-(4-Chlorophenyl)-3-dimethylamino-propyl]-3-chloro-2-methyl-benzamide oxalate] | 
 |  | 133 ± 3 | 0.129 | CN(C)CCC(NC(=O)C=Cc1ccc(C(F)(F)F)cc1)c1ccc(Cl)cc1 (stereo not drawn) [A8, N-[1-(4-Chlorophenyl)-3-dimethylamino-propyl]-4-trifluoromethyl-cinnamic amide HCl] | 
52 to 101 |  |  |  | COc1ccc(C(=O)OC(CCN(C)C)c2ccc(Cl)cc2)cc1 (stereo not drawn) [4p, 1-(4-Chlorophenyl)-3-dimethylamino-propyl 4-methoxy-benzoate oxalate] | EC50 [2]: 1.55 to 3.72 µM
60 ± 4 | 6.33 ± 0.6 |  |  | Cc1cc(C)c(C(=O)OC(CCN(C)C)c2ccc(Cl)cc2)cc1C.Cl (stereo not drawn) [4i, 1-(4-Chlorophenyl)-3-dimethylamino-propyl 2,4,5-trimethyl-benzoate HCl] | 
126 ± 34 | 5.77 ± 0.01 |  |  | Cc1ccccc1C(=O)OC(CCN(C)C)c1ccc(Cl)cc1.Cl (stereo not drawn) [4a, 1-(4-Chlorophenyl)-3-dimethylamino-propyl 2-methyl-benzoate HCl] | 
 |  | 25 ± 4 | 1.12 | Cc1ccc(C(CCN(C)C)NC(=O)Cc2ccc(C(F)(F)F)cc2)cc1 (stereo not drawn) [B2, N-[3-Dimethylamino-1-(4-methylphenyl)propyl]-2-(4-trifluoromethylphenyl)acetamide HCl] | 
105 ± 8 |  |  |  | CN(C)CCC(OC(=O)Nc1ccc(C(C)(C)C)cc1)c1ccc(Cl)cc1 (stereo not drawn) [7c, N-[1-(4-Chlorophenyl)-3-dimethylaminopropyloxycarbonyl]-4-tert-butylphenyl-amine] | EC50 [2]: 1.78 µM
140 ± 14 |  |  |  | CCc1ccccc1C(=O)NC(CCN(C)C)c1ccc(Cl)cc1 (stereo not drawn) [5c, N-[1-(4-Chlorophenyl)-3-dimethylamino-propyl]-2-ethyl-benzamide oxalate] | EC50 [2]: 1.02 µM
 |  | 96 ± 1 | 0.437 | Cc1ccc(C(CCN(C)C)NC(=O)C=Cc2ccc(C(F)(F)F)cc2)cc1 (stereo not drawn) [B8, N-[3-Dimethylamino-1-(4-methylphenyl)propyl]-4-trifluoromethyl-cinnamic amide HCl] | 
56 ± 6 | 5.56 ± 0.01 |  |  | Cc1ccc(C(=O)OC(CCN(C)C)c2ccc(Cl)cc2)cc1.Cl (stereo not drawn) [4c, 1-(4-Chlorophenyl)-3-dimethylamino-propyl 4-methyl-benzoate HCl] | 
 |  | 115 ± 14 | 0.457 | CN(C)CCC(NC(=O)C#Cc1ccccc1)c1ccc2ccccc2c1 (stereo not drawn) [C10, N-[3-Dimethylamino-1-(2-naphthyl)propyl]-3-phenylpropiolic amide HCl] | 
